What was measured:
Format in all cases: cell-based, human
MCF‐7 = test: Mitochondrial membrane potential (JC‐1) apoptosis assay, MCF‐7; details: MCF‐7, 50 μM, 24 h, MMP assay
Description: Apoptosis was also investigated by evaluating mitochondrial membrane potential changes (MMP assay). MCF‐7, MDA‐MB‐231, and L‐929 cells were stained with JC‐1 dye according to the manufacturer's protocols (JC‐1 MMP Assay Kit, KA1324, Abnova). The apoptotic to healthy cell ratio was calculated using absorbances collected from two different fluorescence channels (535/595 for healthy cells, 485/535 for apoptotic cells) (Synergy H1, Biotech Instruments Inc., Vermont, USA).

MDA‐MB‐231 [1] = test: MTT cell viability assay, MDA‐MB‐231; details: for IC50: MTT
Source text: MCF‐7, MDA‐MB‐231, and L‐929 mouse fibroblast cell lines were obtained from the American Type Culture Collection (ATCC, Manassas, Virginia, USA). MCF‐7 is a hormone‐responsive, differentiated mammary epithelium cell line with an ER+, PR+, and HER2‐ pattern (ATCC, HTB‐22). MDA‐MB‐231 is a triple‐negative differentiated mammary epithelium cell line (ATCC, HTB‐26). The L‐929 mouse fibroblast cell line is derived from the normal subcutaneous connective tissue of a mouse and is commonly used in cytotoxicity assays (ATCC, CCL‐1). All cell lines were cultured in DMEM medium (Dulbecco's Modified Eagle Medium, Gibco), supplemented with 10% fetal bovine serum (Gibco), 1% glutamine, and penicillin/streptomycin (Gibco) in a humidified atmosphere containing 5% CO2 at 37°C. Cell viability was tested using Trypan blue staining.
The MTT [3‐(4,5‐dimethylthiazol‐2‐yl)−2,5‐diphenyltetrazolium bromide] assay is a colorimetric assay for determining cell metabolic activity. In the MTT assay, the yellow dye MTT that dissolves in water is changed by mitochondrial reductase into a purple formazan that is non‐soluble. The water‐insoluble formazan produced is solubilized in a solubilization buffer, and absorbances are detected.
In 96‐well plates, the cells were cultivated at a density of 5 × 10^3 cells/well using 100 µL medium. […] 10 μL of the MTT labeling reagent (final concentration 0.5 mg/mL) were added to each well at the end of the incubation periods, and the wells were incubated for an additional 4 h. Next, each well received 100 μL of solubilization buffer (10% SDS in 0.01 M HCl) and was overnight incubated, and the absorbance of formazan products was evaluated at 550 nm using a multi‐mode microplate reader (Synergy H1, Biotech Instruments Inc., Vermont, USA). The results were normalized relative to the absorbances of calculated percent concentrations of DMSO. All tests involved three replicates with three independent experiments.
All statistical evaluations, including t‐tests and IC50 values, were calculated using the GraphPad Prism software tool (v6.0, GraphPad Software Inc., San Diego, USA). Statistical significance was defined as p ˂ 0.05 (*p < 0.05, **p < 0.01, ***p < 0.001, ****p < 0.0001).

MDA‐MB‐231 [2] = test: Annexin V/PI staining, Tali image‐based cytometry, MDA‐MB‐231; details: MDA‐MB‐231, 24 h
Source text: To assess apoptosis and cell death, cells were stained with Annexin V‐PI dyes (Tali Apoptosis Kit‐Annexin V Alexa Fluor 488 and PI‐, Molecular Probes A10788, Invitrogen) and quantified using Tali Image‐Based Cytometer (Invitrogen) and fluorescence microscopy (Olympus CKX41 Inverted Phase Contrast Fluorescence Microscope furbished with reflected fluorescence illuminator CKX‐RFA).
To assess whether our compounds produce their cytotoxic effects through induction of apoptosis, apoptosis was investigated using Annexin V/PI labeling and MMP methods (Figures 4A−C). In addition, by utilizing TALI image‐based cytometry and fluorescent microscopy, the number of cells was analyzed for different concentrations of agents (Table 4).

SMILES: CCc1cccc2c3c([nH]c12)C(CC)(CC(=O)N/N=C/c1ccc(OC)cc1)OCC3 (racemic) [SGK 206, 2‐(1,8‐Diethyl‐1,3,4,9‐tetrahydropyrano[3,4‐b]indole‐1‐yl) acetic acid[(4‐methoxyphenyl)methylene]acetohydrazide]
- Increase in apoptosis compared to the control group (MCF‐7): 48%
- IC50 (MDA‐MB‐231 [1]; Homo sapiens, MDA-MB-231, 24 h, MDA‐MB‐231, 24 h): 43 µM
- IC50 (MDA‐MB‐231 [1]; Homo sapiens, MDA-MB-231, 48 h, MDA‐MB‐231, 48 h): 38 ± 2.3 µM
- IC50 (MDA‐MB‐231 [1]; Homo sapiens, MDA-MB-231, 72 h, MDA‐MB‐231, 72 h): 36 ± 3.19 µM
- IC50 (MDA‐MB‐231 [1]; MDA‐MB‐231, 24 h): 43.2 ± 1.94 µM
- Selectivity index (SI) (MDA‐MB‐231 [1]; MDA‐MB‐231 in comparison to L‐929, 24 h): 1.65
- Selectivity index (SI) (MDA‐MB‐231 [1]; MDA‐MB‐231 in comparison to L‐929, 48 h): 1.26
- Selectivity index (SI) (MDA‐MB‐231 [1]; MDA‐MB‐231 in comparison to L‐929, 72 h): 1.38
- Apoptotic cells (MDA‐MB‐231 [2]; 25 µM): 1%
- Dead cells (MDA‐MB‐231 [2]; 25 µM): 2%
- Live cells (MDA‐MB‐231 [2]; 25 µM): 97%
- Apoptotic cells (MDA‐MB‐231 [2]; 50 µM): 4%
- Dead cells (MDA‐MB‐231 [2]; 50 µM): 3%
- Live cells (MDA‐MB‐231 [2]; 50 µM): 93%
- Apoptotic cells (MDA‐MB‐231 [2]; 75 µM): 8%
- Dead cells (MDA‐MB‐231 [2]; 75 µM): 25%
- Live cells (MDA‐MB‐231 [2]; 75 µM): 67%
